Target: T1, IRAK4 (Homo sapiens, UniProt Q9NWZ3)
T1 sequence (Q9NWZ3 1-460): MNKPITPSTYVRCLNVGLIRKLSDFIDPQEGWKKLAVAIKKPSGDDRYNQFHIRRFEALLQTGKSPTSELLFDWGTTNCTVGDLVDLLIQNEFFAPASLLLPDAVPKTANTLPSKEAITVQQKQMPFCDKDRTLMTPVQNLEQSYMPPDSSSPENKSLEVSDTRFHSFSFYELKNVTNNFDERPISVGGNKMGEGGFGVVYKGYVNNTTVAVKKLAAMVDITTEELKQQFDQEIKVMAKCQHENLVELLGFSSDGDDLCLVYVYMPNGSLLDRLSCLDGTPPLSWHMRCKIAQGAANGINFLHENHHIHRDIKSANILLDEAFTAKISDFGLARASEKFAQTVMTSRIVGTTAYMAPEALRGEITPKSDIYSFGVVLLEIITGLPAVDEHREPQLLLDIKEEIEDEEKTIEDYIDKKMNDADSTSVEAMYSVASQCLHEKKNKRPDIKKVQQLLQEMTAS
Assay: 2-hour 1 mM ATP IRAK4 Biochemical assay (as above, but with 100 pM IRAK4 and 1 mM ATP)
Conditions: IRAK4 MSD BIOCHEMICAL (1 mM ATP) IC50 (μM), 100 pM IRAK4, 2 hours
Method: The 2-hour 10 μM ATP Biochemical Assay employs a MesoScale Detection (MSD) format.
The activity is quenched with 11 μl of 70 mM EDTA, pH 8.
To detect the phosphorylated biotinylated peptide substrate, 30 μl of the quenched reaction mixture is added to equivalent wells of a 384 well streptavidin coated MesoScale plate (Meso Scale Discovery #L21SA-1). After a 1 hour incubation of the plate for 1 hour at room temperature with gentle mixing, the plate wells are washed 3 times with 50 mM Tris, pH 7.5, 150 mM NaCl, 0.02% Tween-20.
A 25 μl volume of 1:500 anti-P-Threonine Rabbit polyclonal Antibody plus 1:500 Goat-anti-Rabbit Sulfo Tag Antibody (Meso Scale Discovery R32AB-1) in 50 mM Tris, pH 7.5, 150 mM NaCl, 0.02% Tween-20 plus 2% BSA is then added to each well. After a 1-hour incubation of the plate for 1 hour at room temperature with gentle mixing, the plate wells are washed, 3 times with 50 mM Tris, pH 7.5, 150 mM NaCl, 0.02% Tween-20. A 40 μl volume of 2×MSD Read Buffer (Meso Scale Discovery R92TC-1) is added to each well, and the plate is read immediately in an MSD Plate Reader (Meso Scale Discovery).
The 2-hour 1 mM ATP IRAK4 Biochemical assay was performed as described above, but with 100 pM IRAK4 and 1 mM ATP.

SMILES	IC50 [µM]
CC(C)Oc1cc2nc(-c3cccc(F)c3)cn2cc1NC(=O)c1cccc(C(F)F)n1 [Example 538, 6-(difluoromethyl)-N-(2-(3-fluorophenyl)-7-isopropoxyimidazo[1,2-a]pyridin-6-yl)picolinamide 2,2,2-trifluoroacetate]	0.003
COc1ncccc1C(=O)Nc1cn2cc(C34COC(C)(C3)C4)nc2c(OC(C)C)n1 [Example 337, N-(8-isopropoxy-2-(1-methyl-2-oxabicyclo[2.1.1]hexan-4-yl)imidazo[1,2-a]pyrazin-6-yl)-2-methoxynicotinamide]	0.006
CC(C)Oc1c(NC(=O)c2cccn(C(F)F)c2=O)cn2cc(C34COC(C)(C3)C4)nc2c1F [Example 324, 1-(difluoromethyl)-N-(8-fluoro-7-isopropoxy-2-(1-methyl-2-oxabicyclo[2.1.1]hexan-4-yl)imidazo[1,2-a]pyridin-6-yl)-2-oxo-1,2-dihydropyridine-3-carboxamide]	0.002
COc1nc(NC(=O)c2cccc(C(F)F)n2)cn2cc(CCOC(F)(F)F)nc12 [Example 563, 6-(difluoromethyl)-N-(8-methoxy-2-(2-(trifluoromethoxy)ethyl)imidazo[1,2-a]pyrazin-6-yl)picolinamide 2,2,2-trifluoroacetate]	0.046
O=C(Nc1cn2cc(C3CCOCC3)nc2cc1OCC1CC12CCOC2)c1cccc(C(F)F)n1 (centres unmarked) [Example 194, N-(7-((5-oxaspiro[2.4]heptan-1-yl)methoxy)-2-(tetrahydro-2H-pyran-4-yl)imidazo[1,2-a]pyridin-6-yl)-6-(difluoromethyl)picolinamide]	0.002
COc1nc(NC(=O)c2cccc3ccnn23)cn2cc(C34COC(C)(C3)C4)nc12 [Example 442, N-(8-methoxy-2-(1-methyl-2-oxabicyclo[2.1.1]hexan-4-yl)imidazo[1,2-a]pyrazin-6-yl)pyrazolo[1,5-a]pyridine-7-carboxamide]	0.024
CC12CC(c3cn4cc(NC(=O)c5cccc(C(F)F)n5)ncc4n3)(CO1)C2 [Example 274, 6-(difluoromethyl)-N-(2-(1-methyl-2-oxabicyclo[2.1.1]hexan-4-yl)imidazo[1,2-a]pyrazin-6-yl)picolinamide]	0.068
Cc1cc(NC(=O)c2ccn(C)n2)cn2cc(C34COC(C)(C3)C4)nc12 [Example 409, 1-methyl-N-(8-methyl-2-(1-methyl-2-oxabicyclo[2.1.1]hexan-4-yl)imidazo[1,2-a]pyridin-6-yl)-1H-pyrazole-3-carboxamide 2,2,2-trifluoroacetate]	0.534
Cc1nc(C(=O)Nc2cn3cc(C45COC(C)(C4)C5)nc3c(OC3CCC3)n2)co1 [Example 484, N-(8-cyclobutoxy-2-(1-methyl-2-oxabicyclo[2.1.1]hexan-4-yl)imidazo[1,2-a]pyrazin-6-yl)-2-methyloxazole-4-carboxamide]	0.02
CC12CC(c3cn4cc(NC(=O)c5cccc(C(F)F)n5)c(C(F)F)cc4n3)(CO1)C2 [Example 393, 6-(difluoromethyl)-N-(7-(difluoromethyl)-2-(1-methyl-2-oxabicyclo[2.1.1]hexan-4-yl)imidazo[1,2-a]pyridin-6-yl)picolinamide 2,2,2-trifluoroacetate]	0.003
O=C(Nc1cn2cc(C3CCOCC3)nc2cc1OC1CCOC1)c1cccc(C(F)F)n1 (centres unmarked) [Example 183, 6-(difluoromethyl)-N-(2-(tetrahydro-2H-pyran-4-yl)-7-((tetrahydrofuran-3-yl)oxy)imidazo[1,2-a]pyridin-6-yl)picolinamide]	0.001
COc1cc(NC(=O)c2cccc(C(F)F)n2)cn2cc(C3CCCOC3)nc12 (racemic) [Example 268, 6-(difluoromethyl)-N-(8-methoxy-2-(tetrahydro-2H-pyran-3-yl)imidazo[1,2-a]pyridin-6-yl)picolinamide]	0.002
Cc1nc(NC(=O)c2cccc(C(F)F)n2)cn2cc(C3CCOCC3)nc12 [Example 296, 6-(difluoromethyl)-N-(8-methyl-2-(tetrahydro-2H-pyran-4-yl)imidazo[1,2-a]pyrazin-6-yl)picolinamide]	0.089

Next, values leading:

IC50 [µM]	SMILES
0.004	CC(C)Oc1cc2nc(C3CC3)cn2cc1NC(=O)c1ccn(C(F)F)n1 [Example 528, N-(2-cyclopropyl-7-isopropoxyimidazo[1,2-a]pyridin-6-yl)-1-(difluoromethyl)-1H-pyrazole-3-carboxamide]
0.001	CC12CC(c3cn4cc(NC(=O)c5cccc(C(F)F)n5)c(OC(F)F)cc4n3)(CO1)C2 [Example 395, N-(7-(difluoromethoxy)-2-(1-methyl-2-oxabicyclo[2.1.1]hexan-4-yl)imidazo[1,2-a]pyridin-6-yl)-6-(difluoromethyl)picolinamide 2,2,2-trifluoroacetate]
0.003	COc1c(F)cccc1C(=O)Nc1cn2cc(C34COC(C)(C3)C4)nc2nc1OC(C)C [Example 489, 3-fluoro-N-(7-isopropoxy-2-(1-methyl-2-oxabicyclo[2.1.1]hexan-4-yl)imidazo[1,2-a]pyrimidin-6-yl)-2-methoxybenzamide 2,2,2-trifluoroacetate]
0.021	Cn1ccc(C(=O)Nc2cn3cc(C45COC(C)(C4)C5)nc3cc2OC(F)F)n1 [Example 397, N-(7-(difluoromethoxy)-2-(1-methyl-2-oxabicyclo[2.1.1]hexan-4-yl)imidazo[1,2-a]pyridin-6-yl)-1-methyl-1H-pyrazole-3-carboxamide 2,2,2-trifluoroacetate]
0.021	CC(C)Oc1cc(NC(=O)c2cccc(C(F)F)n2)cn2cc(C3CCOCC3)nc12 [Example 418, 6-(difluoromethyl)-N-(8-isopropoxy-2-(tetrahydro-2H-pyran-4-yl)imidazo[1,2-a]pyridin-6-yl)picolinamide 2,2,2-trifluoroacetate]
0.001	CCOc1cc2nc(C3C4COCC43)cn2cc1NC(=O)c1csc(C(F)(F)F)n1 (centres unmarked) [Example 377, N-(2-(3-oxabicyclo[3.1.0]hexan-6-yl)-7-ethoxyimidazo[1,2-a]pyridin-6-yl)-2-(trifluoromethyl)thiazole-4-carboxamide 2,2,2-trifluoroacetate]
0.035	COCc1cc2nc(C3CCOCC3)cn2cc1NC(=O)c1cccc(C)n1 [Example 371, N-(7-(methoxymethyl)-2-(tetrahydro-2H-pyran-4-yl)imidazo[1,2-a]pyridin-6-yl)-6-methylpicolinamide 2,2,2-trifluoroacetate]
0.001	CCOc1cc2nc(C3CN(CC(F)(F)F)C3)cn2cc1NC(=O)c1cccc(C(F)F)n1 [Example 77, 6-(difluoromethyl)-N-(7-ethoxy-2-(1-(2,2,2-trifluoroethyl)azetidin-3-yl)imidazo[1,2-a]pyridin-6-yl)picolinamide]
0.002	COc1ncccc1C(=O)Nc1cn2cc(C34COC(C)(C3)C4)nc2cc1OC(F)F [Example 396, N-(7-(difluoromethoxy)-2-(1-methyl-2-oxabicyclo[2.1.1]hexan-4-yl)imidazo[1,2-a]pyridin-6-yl)-2-methoxynicotinamide 2,2,2-trifluoroacetate]
0.008	COc1nc(NC(=O)c2cccc3c2OCC3)cn2cc(C34CCC(C)(C3)OC4)nc12 (centres unmarked) [Example 469, N-(8-methoxy-2-(1-methyl-2-oxabicyclo[2.2.1]heptan-4-yl)imidazo[1,2-a]pyrazin-6-yl)-2,3-dihydrobenzofuran-7-carboxamide 2,2,2-trifluoroacetate]

— patent US20220089592A1, “IMIDAZO[1,2-A]PYRIDINYL DERIVATIVES AS IRAK4 INHIBITORS” (priority 2019, published 2022)
